Data as given in PMC4890880 (ACS infectious diseases, 2016).
Read-outs that look alike come from different tables or passages of the source.

Legend:
HepG2-A16-CD81EGFP cells [1] = assay: cells; conditions: Homo sapiens, HepG2, read-out: % inhibition
HepG2-A16-CD81EGFP cells [2] = assay: cells; conditions: Homo sapiens, HepG2, read-out: % inhibition; remark: listed apart in the source
[3] = system: Plasmodium berghei (Pb-Luc) exoerythrocytic-stage parasites; assay: microbe, parasite or virus in culture; conditions: for inhibition at 10 µM: read-out: PbLuc max inhibition (%) @ 10 uM
[4] = biological target: QuantiLum Recombinant Luciferase (Photinus pyralis, UniProt P08659); assay: Bioluminescence quantification of compound luciferase inhibition; conditions: for Emax: read-out: LucInhib max inhibition
HepG2-A16-CD81EGFP cells [5] = assay: cells; conditions: Homo sapiens; for IC50: HepG2, read-out: Tox IC50; for inhibition at 10 µM: HepG2, read-out: Tox max inhibition (%) @ 10 uM; for inhibition at 50 µM: HepG2, read-out: Tox max inhibition (%) @ 50 uM
[6] = read-out: Inhibition% @ 50 uM rep1
[7] = read-out: Inhibition% @ 50 uM rep2
[8] = HepG2, read-out: HepG2 Tox% @ 50 uM rep1
[9] = HepG2, read-out: HepG2 Tox% @ 50 uM rep2
[10] = read-out: PbLuc IC50, dose response, 1/3 dilutions, max conc. 10 or 50 uM, unit inferred
[11] = read-out: PbLuc IC50, dose response, unit inferred
[12] = read-out: PbLuc max inhibition (%) @ 50 uM

QuantiLum Recombinant Luciferase, sequence (P08659 whole entry): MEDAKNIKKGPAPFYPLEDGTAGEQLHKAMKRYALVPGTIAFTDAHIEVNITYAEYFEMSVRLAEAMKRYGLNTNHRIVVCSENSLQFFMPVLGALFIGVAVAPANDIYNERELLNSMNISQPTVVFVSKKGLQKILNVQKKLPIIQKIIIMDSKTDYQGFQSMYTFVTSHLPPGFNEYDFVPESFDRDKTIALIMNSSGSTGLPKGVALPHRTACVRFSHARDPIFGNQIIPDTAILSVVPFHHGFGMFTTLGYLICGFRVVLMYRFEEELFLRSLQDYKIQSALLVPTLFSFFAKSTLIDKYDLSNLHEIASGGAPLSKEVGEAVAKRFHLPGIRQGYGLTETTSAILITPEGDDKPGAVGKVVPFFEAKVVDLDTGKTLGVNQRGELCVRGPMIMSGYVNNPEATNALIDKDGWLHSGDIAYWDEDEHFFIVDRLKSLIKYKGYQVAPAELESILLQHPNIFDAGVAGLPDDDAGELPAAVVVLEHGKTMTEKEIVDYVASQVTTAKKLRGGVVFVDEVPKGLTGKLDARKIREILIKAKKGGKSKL

SMILES	inhibition at 50 µM (HepG2-A16-CD81EGFP cells [1]) [%]	inhibition at 50 µM (HepG2-A16-CD81EGFP cells [2]) [%]	inhibition at 50 µM [3, 6] [%]	inhibition at 50 µM [3, 7] [%]	IC50 [4] [µM]	Emax [4] [%]	cytotoxicity at 50 µM (HepG2-A16-CD81EGFP cells [5]; [8]) [%]	cytotoxicity at 50 µM (HepG2-A16-CD81EGFP cells [5]; [9]) [%]	IC50 (HepG2-A16-CD81EGFP cells [5]) [µM]	inhibition at 10 µM (HepG2-A16-CD81EGFP cells [5]) [%]	IC50 [3, 10] [nM]	inhibition at 10 µM [3] [%]	IC50 [3, 11] [nM]	inhibition at 50 µM (HepG2-A16-CD81EGFP cells [5]) [%]	inhibition at 50 µM [3, 12] [%]
CCOc1cc2c(cc1OCC)C(c1cc(C)c(O)c(C)c1)NCC2 (centres unmarked) [MMV000483]	23	55.7	69	61											
COc1ccc(C2Sc3ccccc3N=C3C2=C(O)c2ccccc23)cc1 (centres unmarked) [MMV000563]	62.5	71.1	103	104											
CC1CCCCN1CCCNC(=O)c1ccc2c(c1)sc1nc(-c3ccc(F)cc3)cn12 (centres unmarked) [MMV000634]	97	98.9	103	103											
COc1ccccc1CNC(=O)C1c2ccccc2C(=O)N(CC(C)C)C1c1cccs1 (centres unmarked) [MMV000648]	83.2	91.6	103	105											
CCOc1ccccc1CNC(=O)C1c2ccccc2C(=O)N(CC(C)C)C1c1cccs1 (centres unmarked) [MMV000653]	90.2	94	104	106											
OC(CNC1CCCC1)Cn1c2ccccc2c2ccccc21 (centres unmarked) [MMV000848]	96.9	99.2	103	104											
O=C1CC(O)(C(F)(F)C(F)(F)F)Oc2ccccc21 (centres unmarked) [MMV000972]	96.7	97.9	103	105											
Cc1ccc(Nc2nc(NCCO)c3ccccc3n2)cc1C [MMV001038]	94.2	96.1	102	102											
CSc1ccccc1C(=O)Nc1nc(-c2ccccn2)cs1 [MMV001246]	82.2	86.4	101	104											
CCCCc1ccc(NS(=O)(=O)c2cc3c4c(c2)CCN4C(=O)CC3)cc1 [MMV001255]	67.8	77.1	98	92											
O=C(Nc1ccc(Br)cc1)Nc1cccc(Cl)c1 [MMV001318]	66.2	65.5	103	102											
CCc1c(C)c(=N)c2ccccc2n1C [MMV006278]	71	77.8	100	101											
CN(C)c1ccc(C=Cc2nc(=O)c3ccccc3o2)cc1 [MMV006309]	96.7	98.3	104	105											
CCOC(=O)c1ccc2nc(-c3ccccc3)cc(O)c2c1 [MMV006457]	78.2	82.5	102	104											
COc1ccc(-c2nc3cc(Cc4ccc5[nH]c(-c6ccc(OC)cc6)nc5c4)ccc3[nH]2)cc1 [MMV007384]	96	99.2	104	105											
CCCCCCOC(=O)C1=C(C)NC(=O)NC1c1ccccc1F (centres unmarked) [MMV007686]	19.1	4.22	69	63											
O=c1nc(C=Cc2ccc(Cl)cc2)oc2ccccc12 [MMV007977]	78.9	85.9	104	106											

SMILES	inhibition at 50 µM (HepG2-A16-CD81EGFP cells [1]) [%]	inhibition at 50 µM (HepG2-A16-CD81EGFP cells [2]) [%]	inhibition at 50 µM [3, 6] [%]	inhibition at 50 µM [3, 7] [%]	IC50 [4] [µM]	Emax [4] [%]	cytotoxicity at 50 µM (HepG2-A16-CD81EGFP cells [5]; [8]) [%]	cytotoxicity at 50 µM (HepG2-A16-CD81EGFP cells [5]; [9]) [%]	IC50 (HepG2-A16-CD81EGFP cells [5]) [µM]	inhibition at 10 µM (HepG2-A16-CD81EGFP cells [5]) [%]	IC50 [3, 10] [nM]	inhibition at 10 µM [3] [%]	IC50 [3, 11] [nM]	inhibition at 50 µM (HepG2-A16-CD81EGFP cells [5]) [%]	inhibition at 50 µM [3, 12] [%]
CCOC(=O)c1cnc2c(C)cc(C)cc2c1Nc1ccc(OC)c(OC)c1 [MMV008294]	1.7	-1.86	0.759	0											
CCOC(=O)c1cn(CC)c2cc(N3CCCCC3)c(F)cc2c1=O [MMV665827]			102	105	> 20	24	-12	-7	> 10	15	74.3	99			
O=C(Nc1ccc(-c2nc3ccccc3[nH]2)cc1)c1ccc(Cl)c(Cl)c1 [MMV665840]			-57	-66	> 20	22	-7		> 10	31		15	> 10000		
Oc1c2c(nc3ccccc13)CCCC2 [MMV665843]			98	100	> 50	18	-7.59		> 50		894			8	101
COc1cccc(NC(=O)[C@H](C(C)C)n2c(=O)[nH]c3ccccc3c2=O)c1 [MMV665878]			102	102	> 50	28	12	4.53	> 50		13200			13	101
O=C(c1ccccc1F)N(Cc1ccc(Cl)cc1)c1ccccn1 [MMV665899]			100	98	> 50	40	20	28	> 50		9540			6	94
COCCn1c(C)nc2ccccc2c1=O [MMV665904]			100	102	> 20	13	1.26	-3	> 10	22	1990	90			
N=c1c2ccccc2nnn1-c1cccc(C(F)(F)F)c1 [MMV665923]			99	99	> 50	26	-7.5		> 50		790			26	104
FC(F)(F)c1ccc(Nc2nnnc3ccccc23)cc1 [MMV665935]			102	101	> 50	25	19	-5	> 50		738			7	105
CCOc1ccc(C=Cc2nc(=O)c3ccccc3o2)cc1 [MMV665940]			102	101	16.5	85	19	1	> 50		646			18	104
CCOC(=O)c1cn(CC)c2cc(N(C)CCc3ccc(OC)c(OC)c3)c(F)cc2c1=O [MMV665977]			103	106	> 50	40	6	3	> 50		1610			3.53	106
Cc1ccc(N2C(=O)C3C(C2=O)C2(c4ccccc4)C(=O)C3(c3ccccc3)C(c3ccccc3)=C2c2ccccc2)cc1 (centres unmarked) [MMV666062]			91	100	> 50	23	1.06	8.55	> 50		6540			9	102
O=C(NC1CCCC1)c1ccc(N2CCC(NCc3cccc(C(F)(F)F)c3)CC2)cc1 [MMV666070]			98	96	> 50	18	-11	8.43	> 50		1860			10	98
CCCc1c(C)nc2ccccc2c1O [MMV666081]			101	103	> 20	18	0.331	-5.31	> 10	2.31	195	100			
CCCc1c(C)nc2ccc(Br)cc2c1O [MMV666095]			102	103	> 50	25	-21		> 50		794			-6	106
CC(C)(C)c1ccc(C(=O)Nc2c3c(nn2-c2cccc(Cl)c2)CSC3)cc1 [MMV666123]			101	102	> 50	23	18		> 50		10100			10	103
O=[N+]([O-])c1ccc(C=NNc2nc3ccccc3[nH]2)cc1 [MMV666607]			-47	-99	> 20	30	14	20	> 10	5		-2.2	> 10000		
